Data on four molecules can be found in publication PMC10674565 (Pharmaceuticals, 2023).

Usually IC50 stands for the concentration needed to halve the response being measured. Read a high IC50 as a need for much substance. One may read the inhibition as the share of the control response that was lost under treatment. Read a high inhibition as a strong effect.

Details of data set [1]: method as in earlier work. To be noted: liver metabolites of EMHPS; cited from earlier work.
In data set [2] the target is T1, SLCO1B1 (Homo sapiens, UniProt Q9Y6L6).
T1 sequence (Q9Y6L6 1-691): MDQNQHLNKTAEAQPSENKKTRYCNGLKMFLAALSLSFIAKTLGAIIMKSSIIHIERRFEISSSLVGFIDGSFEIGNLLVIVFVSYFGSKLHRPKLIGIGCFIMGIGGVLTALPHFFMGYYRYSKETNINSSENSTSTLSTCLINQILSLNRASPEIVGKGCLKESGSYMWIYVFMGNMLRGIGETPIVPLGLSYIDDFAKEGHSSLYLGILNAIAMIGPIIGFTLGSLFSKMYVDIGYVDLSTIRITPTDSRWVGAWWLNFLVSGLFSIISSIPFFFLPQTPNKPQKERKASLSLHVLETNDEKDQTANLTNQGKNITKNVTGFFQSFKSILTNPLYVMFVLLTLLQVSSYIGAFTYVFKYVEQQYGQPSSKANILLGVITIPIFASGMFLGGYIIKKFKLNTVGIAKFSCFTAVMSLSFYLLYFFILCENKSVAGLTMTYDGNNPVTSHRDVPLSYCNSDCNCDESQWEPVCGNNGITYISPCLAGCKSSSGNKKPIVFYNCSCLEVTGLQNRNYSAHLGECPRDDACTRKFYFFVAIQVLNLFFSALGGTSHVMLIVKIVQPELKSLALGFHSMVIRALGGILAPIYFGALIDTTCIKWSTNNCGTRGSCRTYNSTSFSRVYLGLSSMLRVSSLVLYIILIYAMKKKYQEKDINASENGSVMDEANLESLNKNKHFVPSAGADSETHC
The data set can be described thus: Inhibition of SLCO1B1-mediated uptake of atorvastatin in HEK293-SLCO1B1 cells. The data set is classed as in vitro ADME. Also on record: The SLCO1B1 gene was obtained via synthesis and was cloned into the pEGFP-N1 vector; expressed in transfected cells; host or cells: HEK293. The method, then:
As a positive inhibition control, rifampicin at similar concentrations was used. Three independent experiments were performed. […] Proteins were precipitated by adding acetonitrile in a 1:1 ratio to the sample. […] The mobile phase gradient program was as follows: 0-0.6 min-35% A and 65% B, 0.6-5.0 min-5% A and 95% B, 5.0-8.0 min-35% A and 65% B. The flow rate and the column temperature were maintained at 300 μL/min and 35 °C. Aliquots (2 μL) of the extracted samples were injected.

For data set [3], the target named is ABCB1 (Homo sapiens, UniProt P08183). The data set is described as follows: Effect on ABCB1-mediated transport of fexofenadine through the Caco-2 cells monolayer. To be noted: all tested concentrations (1–200 µM), Caco-2 monolayer. The method, then:
Transport experiments were carried out in Transwell® systems (12 mm Transwell® with 0.4 µm Pore Polycarbonate Membrane Insert, Sterile, «Corning»). The Transwell® system consists of two chambers, apical and basolateral. […] The medium was changed every 2–3 days. The apical and basolateral chambers represent the luminal and blood/mesenteric lymph sides of the gastrointestinal tract, respectively.
The transepithelial electrical resistance (TEER) across the cell monolayers was monitored using a Millicell-ERS (electrical resistance system) to assess cell monolayer integrity. For transport studies, only monolayers with a TEER > 500 Ω cm^2 were used.
To study the roles of different parts of the EMHPS molecule for its action on ABCB1, experiments with succinic acid were also carried out.
Prior to the transport experiments, the culture media was aspirated, and the monolayers were washed twice with transport medium and preincubated with EMHPS, succinic acid, or verapamil for 30 min.
The data are presented as the mean ± SD from three monolayers.
The resulting sample of the transport medium (50 μL) was diluted in 150 μL of the mobile phase, and 100 μL of the resulting solution was injected into the chromatograph. A Phenomenex Synergi 4u Polar-RP 80A (250 × 4.6) chromatographic column was used for analysis. The separation temperature was 35 °C; the flow rate was 1 mL/min. Composition of the mobile phase: acetonitrile (128 mL), deionized water (267.4 mL), acetic acid (6.33 mL), triethylamine to pH = 6.7. […] Detection was carried out at a wavelength of 220 nm.
Half maximal inhibitory concentration (IC50) values were determined through nonlinear regression based on the three-parameter logistic function.
Background: Caco-2 monolayers are a common model of the intestinal barrier.

The mark [4] stands for this setting: human, HEK293-SLCO1B1 cells, pH 7.4, probe atorvastatin 1 µM.

ABCB1, sequence (P08183 whole entry): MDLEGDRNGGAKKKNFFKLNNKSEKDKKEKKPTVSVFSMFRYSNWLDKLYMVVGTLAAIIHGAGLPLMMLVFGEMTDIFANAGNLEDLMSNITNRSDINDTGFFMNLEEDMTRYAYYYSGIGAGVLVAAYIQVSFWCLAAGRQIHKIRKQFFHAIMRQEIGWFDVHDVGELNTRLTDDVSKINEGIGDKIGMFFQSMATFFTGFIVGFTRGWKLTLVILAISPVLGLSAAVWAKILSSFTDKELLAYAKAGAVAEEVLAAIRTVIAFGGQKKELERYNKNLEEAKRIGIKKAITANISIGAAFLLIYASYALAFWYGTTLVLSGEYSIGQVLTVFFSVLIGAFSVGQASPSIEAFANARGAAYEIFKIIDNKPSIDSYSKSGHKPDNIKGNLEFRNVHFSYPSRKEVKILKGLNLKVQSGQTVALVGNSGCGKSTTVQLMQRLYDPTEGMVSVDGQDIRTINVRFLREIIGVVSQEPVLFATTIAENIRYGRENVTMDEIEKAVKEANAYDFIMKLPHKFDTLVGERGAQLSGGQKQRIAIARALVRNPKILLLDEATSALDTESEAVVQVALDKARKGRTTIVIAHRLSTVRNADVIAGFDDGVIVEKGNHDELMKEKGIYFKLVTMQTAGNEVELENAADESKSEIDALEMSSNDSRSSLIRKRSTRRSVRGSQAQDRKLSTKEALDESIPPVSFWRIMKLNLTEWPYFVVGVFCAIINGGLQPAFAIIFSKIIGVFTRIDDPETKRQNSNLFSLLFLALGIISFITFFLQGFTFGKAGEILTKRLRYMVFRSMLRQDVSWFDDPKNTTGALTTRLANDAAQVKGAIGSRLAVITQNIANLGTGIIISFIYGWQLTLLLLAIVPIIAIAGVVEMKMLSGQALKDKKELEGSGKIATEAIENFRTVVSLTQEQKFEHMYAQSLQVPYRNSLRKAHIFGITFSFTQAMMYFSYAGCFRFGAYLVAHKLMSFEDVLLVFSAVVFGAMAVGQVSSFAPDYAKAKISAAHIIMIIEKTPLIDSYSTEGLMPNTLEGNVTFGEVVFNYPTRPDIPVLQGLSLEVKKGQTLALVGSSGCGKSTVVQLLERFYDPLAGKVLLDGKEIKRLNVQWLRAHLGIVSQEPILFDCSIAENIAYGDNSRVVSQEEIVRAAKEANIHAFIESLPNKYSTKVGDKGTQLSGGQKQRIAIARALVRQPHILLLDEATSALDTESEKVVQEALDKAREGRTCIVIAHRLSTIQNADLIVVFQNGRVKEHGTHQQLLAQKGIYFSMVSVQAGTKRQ

Turning to `CCc1nc(C)ccc1O[C@@H]1O[C@H](C(=O)O)[C@@H](O)[C@H](O)[C@H]1O` [2-ethyl-6-methyl-3-hydroxypyridine glucuronide], the pharmacological activity entry in data set [1] was “no pharmacological activity”. `CCc1nc(C)ccc1O.O=P(O)(O)O` [2-ethyl-6-methyl-3-hydroxypyridine phosphate]: in data set [1], the pharmacological activity entry is recorded as “no pharmacological activity”. Consider `CO[C@H]1/C=C/O[C@@]2(C)Oc3c(C)c(O)c4c(O)c(c(/C=N/N5CCN(C)CC5)c(O)c4c3C2=O)NC(=O)/C(C)=C\C=C\[C@H](C)[C@H](O)[C@@H](C)[C@@H](O)[C@@H](C)[C@H](OC(C)=O)[C@@H]1C` [rifampicin], for which inhibition in data set [2] was half-maximal at 2510 ± 1350 nM (IC50). For the same molecule, in data set [2] (setting [4]), the inhibition at 100 µM is 91.2% and the inhibition at 500 µM was found to be 95.4%. As to `O=C(O)CCC(=O)O` [succinic acid], the “effect on Papp b-a, Papp a-b, and ER of fexofenadine transport” value in data set [3] is on record as “did not have a significant effect”. Besides, the “effect on SLCO1B1 activity” value in data set [2] (all tested concentrations (1–500 µM), uptake of 1 µM atorvastatin) is “did not have a significant effect”.
